Data from PubChem BioAssay AID330 (DTP/NCI, 2004).
Where “and” joins values, the source holds several entries; their conditions need not be identical. Equal entries are not always repeated. Toxic doses and inconclusive results are not listed. The calls were made as follows: active = survival T/C of 150% or more; inactive = T/C below 125% in these data.

System: P388 leukemia ip, CD2F1 mice, survival T/C
Assay: NCI In Vivo Anticancer Drug Screen. Data for tumor model P388 Leukemia (intraperitoneal) in CD2F1 (CDF1) mice
Conditions: endpoint: median survival time, higher = longer survival
Summary of the method: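 Mice carrying the transplanted tumor received test compound or vehicle. Survival was recorded in each group, and the value is the treated-group measurement divided by that of the vehicle-treated control group.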

[1] = dose: 100.0 mg/kg/injection, schedule: Q04DX003 (ip), vehicle: saline with Tween-80
[2] = dose: 200.0 mg/kg/injection, schedule: Q04DX003 (ip), vehicle: saline with Tween-80
[3] = dose: 400.0 mg/kg/injection, schedule: Q04DX003 (ip), vehicle: saline with Tween-80
[4] = dose: 60.0 mg/kg/injection, schedule: Q01DX005 (ip), vehicle: Klucel (hydroxypropylcellulose) (HPC)
[5] = dose: 120.0 mg/kg/injection, schedule: Q01DX005 (ip), vehicle: Klucel (hydroxypropylcellulose) (HPC)
[6] = dose: 240.0 mg/kg/injection, schedule: Q01DX005 (ip), vehicle: Klucel (hydroxypropylcellulose) (HPC)
[7] = dose: 50.0 mg/kg/injection, schedule: Q01DX009 (ip), vehicle: saline with Tween-80
[8] = dose: 200.0 mg/kg/injection, schedule: Q01DX009 (ip), vehicle: saline with Tween-80
[9] = dose: 50.0 mg/kg/injection, schedule: Q01DX005 (ip), vehicle: Klucel (hydroxypropylcellulose) (HPC)
[10] = dose: 100.0 mg/kg/injection, schedule: Q01DX005 (ip), vehicle: Klucel (hydroxypropylcellulose) (HPC)
[11] = dose: 200.0 mg/kg/injection, schedule: Q01DX005 (ip), vehicle: Klucel (hydroxypropylcellulose) (HPC)
[12] = dose: 25.0 mg/kg/injection, schedule: Q01DX009 (ip), vehicle: saline
[13] = dose: 50.0 mg/kg/injection, schedule: Q01DX009 (ip), vehicle: saline
[14] = dose: 100.0 mg/kg/injection, schedule: Q01DX009 (ip), vehicle: saline
[15] = dose: 100.0 mg/kg/injection, schedule: Q01DX009 (ip), vehicle: saline with Tween-80
[16] = dose: 50.0 mg/kg/injection, schedule: Q01DX009 (ip), vehicle: Klucel (hydroxypropylcellulose) (HPC)
[17] = dose: 100.0 mg/kg/injection, schedule: Q01DX009 (ip), vehicle: Klucel (hydroxypropylcellulose) (HPC)
[18] = dose: 200.0 mg/kg/injection, schedule: Q01DX009 (ip), vehicle: Klucel (hydroxypropylcellulose) (HPC)
[19] = dose: 200.0 mg/kg/injection, schedule: Q01DX009 (ip), vehicle: saline
[20] = dose: 12.5 mg/kg/injection, schedule: Q01DX009 (ip), vehicle: Klucel (hydroxypropylcellulose) (HPC)
[21] = dose: 25.0 mg/kg/injection, schedule: Q01DX009 (ip), vehicle: Klucel (hydroxypropylcellulose) (HPC)
[22] = dose: 50.0 mg/kg/injection, schedule: Q01DX005 (ip), vehicle: saline
[23] = dose: 100.0 mg/kg/injection, schedule: Q01DX005 (ip), vehicle: saline

Measured: T/C

O=C(O)c1c2c(nc3ccccc13)CCCC2
inactive: dose: 50.0 mg/kg/injection, schedule: Q01DX005 (ip), vehicle: Klucel + Tween-80 94 % of control | dose: 100.0 mg/kg/injection, schedule: Q01DX005 (ip), vehicle: Klucel + Tween-80 107 % of control

O=C(O)C1CC(=O)N(Cc2ccccc2)C1 (stereo not drawn)
inactive: [1] 95 % of control | [2] 100 % of control | [3] 100 % of control

CCc1c(O)c(C(C)=O)c(S)[nH]c1=O
inactive: [4] 101 % of control and 88 % of control | [5] 102 % of control | [6] 114 % of control and 87 % of control

Cc1ccc(NC(=O)Oc2c(C)cc(Cl)cc2C)c([N+](=O)[O-])c1
inactive: [7] 95 % of control | [8] 95 % of control

CC(=O)[C@H]1C[C@H](O)[C@H]2[C@@H]3CCC4=CC(=O)CC[C@]4(C)[C@H]3C[C@@H](O)[C@@]21C
inactive: [9] 100 % of control | [10] 100 % of control | [11] 97 % of control

COc1cc(O)c2c(=O)c3c(O)c(O)ccc3oc2c1
inactive: dose: 0.63 mg/kg/injection, schedule: Q01DX009 (ip), vehicle: saline 108 % of control | dose: 1.25 mg/kg/injection, schedule: Q01DX009 (ip), vehicle: saline 110 % of control | dose: 2.5 mg/kg/injection, schedule: Q01DX009 (ip), vehicle: saline 101 % of control | dose: 5.0 mg/kg/injection, schedule: Q01DX009 (ip), vehicle: saline 100 % of control

O=c1nc(Cl)c2ccccc2c2ccccc12
inactive: dose: 100.0 mg/kg/injection, schedule: Q01DX001 (ip), vehicle: saline with Tween-80 96 % of control | dose: 100.0 mg/kg/injection, schedule: Q01DX005 (ip), vehicle: saline with Tween-80 96 % of control | dose: 200.0 mg/kg/injection, schedule: Q01DX001 (ip), vehicle: saline with Tween-80 97 % of control | dose: 200.0 mg/kg/injection, schedule: Q01DX005 (ip), vehicle: saline with Tween-80 97 % of control | dose: 400.0 mg/kg/injection, schedule: Q01DX001 (ip), vehicle: saline with Tween-80 87 % of control | dose: 400.0 mg/kg/injection, schedule: Q01DX005 (ip), vehicle: saline with Tween-80 87 % of control

CC(=NCC(=O)O)c1ccccc1
inactive: [12] 104 % of control | [13] 111 % of control | [14] 109 % of control

Nc1nc2c(C(=O)N3CCCC3)nnn2c2ccccc12
inactive: [7] 93 % of control | [15] 94 % of control

CCCCCCCCCC1(CC(=O)OCC)SCCN1C(N)=O (stereo not drawn)
inactive: [16] 113 % of control | [17] 107 % of control | [18] 115 % of control

O=C(OC1C2CCC2C2CC21)c1ccc([N+](=O)[O-])cc1[N+](=O)[O-] (stereo not drawn)
inactive: [13] 105 % of control | [14] 99 % of control and 92 % of control | [19] 92 % of control and 93 % of control

COc1ccccc1N=Nc1cc(S(=O)(=O)O)c2ccccc2c1O
inactive: [12] 89 % of control | [13] 97 % of control | [14] 100 % of control and 117 % of control | [19] 91 % of control

COc1ccc2nc3cc(Cl)ccc3c(NCC3CCCN4CCCCC34)c2c1 (stereo not drawn)
inactive: dose: 12.5 mg/kg/injection, schedule: Q01DX005 (ip), vehicle: distilled water + Tween-80 98 % of control | dose: 25.0 mg/kg/injection, schedule: Q01DX005 (ip), vehicle: distilled water + Tween-80 103 % of control | dose: 50.0 mg/kg/injection, schedule: Q01DX005 (ip), vehicle: distilled water + Tween-80 104 % of control | dose: 100.0 mg/kg/injection, schedule: Q01DX005 (ip), vehicle: distilled water + Tween-80 113 % of control

C#CCOC(=O)Nc1nc2ccc(C)cc2s1
inactive: dose: 6.25 mg/kg/injection, schedule: Q01DX009 (ip), vehicle: Klucel (hydroxypropylcellulose) (HPC) 107 % of control | [20] 104 % of control | [21] 101 % of control

O=C(O)C(Cc1ccccc1F)NC(=O)C(F)(F)F (stereo not drawn)
inactive: [7] 92 % of control | [15] 94 % of control | [8] 100 % of control

Cc1cc(C)c(S(=O)(=O)Sc2nnnn2C)c(C)c1
inactive: [20] 102 % of control | [21] 104 % of control | [16] 95 % of control and 98 % of control | [18] 98 % of control

CCOC(=O)CC1(O)CSc2nc(N)cc(=O)n21 (stereo not drawn)
inactive: [9] 94 % of control | [10] 99 % of control | [11] 91 % of control

COc1c(C(C)C)cc2c(c1OC)C13CCCC(C)(C)C1C(OC3=O)C2NC(=O)C(C)N(C)C (stereo not drawn)
inactive: dose: 12.5 mg/kg/injection, schedule: Q01DX009 (ip), vehicle: saline 100 % of control | [12] 98 % of control | [13] 100 % of control

OCC1CC2CCCCN2O1 (stereo not drawn)
inactive: dose: 25.0 mg/kg/injection, schedule: Q01DX005 (ip), vehicle: saline 102 % of control | [22] 101 % of control | [23] 105 % of control | dose: 200.0 mg/kg/injection, schedule: Q01DX005 (ip), vehicle: saline 106 % of control

COC(=O)c1cc(Cl)ccc1OS(N)(=O)=O
inactive: [4] 103 % of control | [5] 102 % of control | [6] 97 % of control

OC1C=CC2CCC1C2 (stereo not drawn)
inactive: [7] 107 % of control | [15] 114 % of control | [8] 115 % of control

CCCCC(CC)C1NC(C(=O)O)CS1 (stereo not drawn)
inactive: dose: 50.0 mg/kg/injection, schedule: Q01DX009 (ip), vehicle: suspension in saline 96 % of control | dose: 100.0 mg/kg/injection, schedule: Q01DX009 (ip), vehicle: suspension in saline 87 % of control | dose: 200.0 mg/kg/injection, schedule: Q01DX009 (ip), vehicle: suspension in saline 96 % of control

CCN(CC)CCCC(C)N=C(Nc1ccccc1)c1ccc(Cl)cc1 (stereo not drawn)
inactive: [22] 104 % of control | [23] 102 % of control

CCOC(=O)C1C/C(=N\O)c2ccc(OC)c(OC)c2C1 (stereo not drawn)
inactive: dose: 25.0 mg/kg/injection, schedule: Q01DX009 (ip), vehicle: other 101 % of control | dose: 50.0 mg/kg/injection, schedule: Q01DX009 (ip), vehicle: other 91 % of control | dose: 100.0 mg/kg/injection, schedule: Q01DX009 (ip), vehicle: other 93 % of control | dose: 200.0 mg/kg/injection, schedule: Q01DX009 (ip), vehicle: other 97 % of control | dose: 400.0 mg/kg/injection, schedule: Q01DX009 (ip), vehicle: other 100 % of control

SCc1ccccc1.[Cu+2]
inactive: dose: 6.25 mg/kg/injection, schedule: Q01DX009 (ip), vehicle: saline with Tween-80 99 % of control | dose: 12.5 mg/kg/injection, schedule: Q01DX009 (ip), vehicle: saline with Tween-80 91 % of control | dose: 25.0 mg/kg/injection, schedule: Q01DX009 (ip), vehicle: saline with Tween-80 97 % of control

COC1C=COC2(C)Oc3c(C)c(O)c4c(O)c(c(C5SCCS5)c(O)c4c3C2=O)NC(=O)C(C)=C/C=C\C(C)C2OC(C)(C)OC(C2C)C(C)C(OC(C)=O)C1C (stereo not drawn)
inactive: [7] 109 % of control | [15] 102 % of control | [8] 96 % of control

C/C(C/C(C)=N/C(N)=S)=N\C(N)=S
inactive: dose: 60.0 mg/kg/injection, schedule: Q01DX005 (ip), vehicle: saline 100 % of control | dose: 120.0 mg/kg/injection, schedule: Q01DX005 (ip), vehicle: saline 95 % of control | dose: 240.0 mg/kg/injection, schedule: Q01DX005 (ip), vehicle: saline 100 % of control

CC1Cn2c(nc3sc4c(c3c2=O)CCCC4)S1 (stereo not drawn)
inactive: [16] 104 % of control | [17] 97 % of control | [18] 106 % of control

CC(O)CC1=Nc2c(nc(N)[nH]c2=O)N(C)C1 (stereo not drawn)
inactive: [1] 98 % of control | [2] 97 % of control | [3] 113 % of control
